How the values were obtained:
[1] = molecular target: CLC-0 (Torpedo marmorata, UniProt P21564, E166A); experiment: cell-based
[2] = molecular target: CLC-0 (Torpedo marmorata, UniProt P21564, E166G); experiment: cell-based
Sequence of CLC-0 (Torpedo marmorata, UniProt P21564, E166G) (P21564 whole entry E166G): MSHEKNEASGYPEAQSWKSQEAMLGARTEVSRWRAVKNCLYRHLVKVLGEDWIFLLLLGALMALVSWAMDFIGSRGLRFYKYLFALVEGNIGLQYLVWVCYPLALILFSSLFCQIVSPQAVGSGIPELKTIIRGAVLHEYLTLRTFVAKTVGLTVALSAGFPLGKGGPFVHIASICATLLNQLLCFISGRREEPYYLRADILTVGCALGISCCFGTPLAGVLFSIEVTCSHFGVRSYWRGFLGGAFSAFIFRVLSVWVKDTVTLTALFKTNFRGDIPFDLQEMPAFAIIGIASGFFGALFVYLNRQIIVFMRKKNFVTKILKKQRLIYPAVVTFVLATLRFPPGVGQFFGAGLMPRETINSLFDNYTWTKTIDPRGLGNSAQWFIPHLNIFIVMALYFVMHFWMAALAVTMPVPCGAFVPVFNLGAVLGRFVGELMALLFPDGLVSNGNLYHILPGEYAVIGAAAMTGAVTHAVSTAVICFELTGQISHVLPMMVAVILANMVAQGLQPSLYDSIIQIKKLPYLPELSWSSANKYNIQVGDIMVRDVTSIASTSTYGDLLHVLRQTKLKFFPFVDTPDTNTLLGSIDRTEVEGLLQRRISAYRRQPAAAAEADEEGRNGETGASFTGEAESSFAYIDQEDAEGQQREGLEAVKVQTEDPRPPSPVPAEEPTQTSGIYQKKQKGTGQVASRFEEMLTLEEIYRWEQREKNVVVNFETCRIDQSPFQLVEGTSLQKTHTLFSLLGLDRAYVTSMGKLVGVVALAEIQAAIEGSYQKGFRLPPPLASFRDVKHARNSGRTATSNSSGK

Sequence of CLC-0 (Torpedo marmorata, UniProt P21564, E166A) (P21564 whole entry E166A): as the sequence (P21564 whole entry E166G) above, with G166A counted along it

IC50 [1]: 120 ± 20 µM | IC50 [2]: 160 ± 10 µM
Compound: CCCCCCCC(=O)O [OA, octanoate]

— PMC2606939 (The Journal of General Physiology, 2009)
